Article PMC4777897 (Progress in neuro-psychopharmacology & biological psychiatry, 2015)

Experiments:
rats = details: ref Schroeder et al., 2013; cited from earlier work
[1] = Plasma pharmacokinetics of cocaine after 10 mg IV infusion; details: cocaine 10 mg IV
[2] = tested on: participants who met criteria for cocaine use disorder; assay: Cocaine-induced subjective effects; type: in vivo, human; details: VAS
[3] = tested on: participants who met criteria for cocaine use disorder; assay: Reinforcing effects: choice session, cocaine vs money self-administration; type: in vivo, human; details: Day 13; nepicastat 0 or 160 mg; cocaine 0 or 20 mg IV
[4] = tested on: DA and NE release in mPFC and NAc; details: rats, microdialysis; ref Devoto et al., 2014; cited from earlier work
[5] = tested on: participants who met criteria for cocaine use disorder; assay: Adverse events, inpatient study of oral nepicastat with IV cocaine; type: in vivo, human
[6] = tested on: participants who met criteria for cocaine use disorder; assay: Cocaine-induced cardiovascular effects; type: in vivo, human; details: nepicastat 0, 80, 160 mg; cocaine 0, 10, 20, 40 mg IV; n = 13
[7] = Treatment–Cocaine period, nepicastat group n = 14

SMILES: Cl.NCc1c[nH]c(=S)n1[C@H]1CCc2c(F)cc(F)cc2C1.O [nepicastat, (S)-5-aminomethyl-1-(5,7-difluoro-1,2,3,4-tetrahydronaphth-2-yl)-1,3-dihydroimidazole-2-thione hydrochloride monohydrate]
- Breakpoint for cocaine (rats): significantly lowered
- Effect on PK parameters of benzoylecgonine or ecgonine methyl ester ([1]; Day 3 vs Day 11, data not shown): None of the PK parameters for benzoylecgonine or ecgonine methyl ester showed statistically significant changes
- Effect on kinetics, metabolism or clearance of cocaine or its metabolites ([1]; oral nepicastat 160 mg): did not change
- Effect on negative subjective effects ([2]; nepicastat 80 and 160 mg oral with IV cocaine): did not increase
- Reduction of the positive subjective effects produced by cocaine ([2]; nepicastat 80 and 160 mg oral, n = 13): ~ 25%
- Main effect on choices for cocaine vs money (ANOVA) [3]: did not reveal a main effect
- DA release in the mPFC and NAc [4]: increasing DA release in the mPFC but not in the NAc
- Incidence of Abnormal dreams [5, 7]: 0 (0) number (%) of subjects
- Incidence of Arthralgia [5, 7]: 2 (14) number (%) of subjects
- Incidence of Back pain [5, 7]: 0 (0) number (%) of subjects
- Incidence of Depressed mood [5, 7]: 1 (7) number (%) of subjects
- Incidence of Dizziness [5, 7]: 0 (0) number (%) of subjects
- Incidence of Dyspepsia [5, 7]: 2 (14) number (%) of subjects
- Incidence of Gastroesophageal reflux disease [5, 7]: 3 (21) number (%) of subjects
- Incidence of Headache [5, 7]: 2 (14) number (%) of subjects
- Incidence of Insomnia [5, 7]: 4 (29) number (%) of subjects
- Incidence of Myalgia [5, 7]: 0 (0) number (%) of subjects
- Incidence of Nausea [5, 7]: 1 (7) number (%) of subjects
- Incidence of Neck pain [5, 7]: 2 (14) number (%) of subjects
- Incidence of Vessel puncture site hematoma [5, 7]: 0 (0) number (%) of subjects
- Incidence of Vessel puncture site pain [5, 7]: 4 (29) number (%) of subjects
- Safety and tolerability (number, type, severity and duration of AEs vs placebo) ([5]; oral nepicastat 80 and 160 mg during IV cocaine exposure): safe and well-tolerated
- Main effect on peak heart rate (ANOVA) [6]: one was detected
- Main effect on peak systolic or diastolic blood pressure (ANOVA) [6]: did not reveal a main effect
